Source: patent US20140296146A1, “Thermostable Inhibitors of Activation of the Blood Clotting System Through Contact with Foreign Surfaces” (Synapse B.V., priority 2011, published 2014)

What was measured:
contact activation = assay: Thrombin generation (CAT) in platelet poor plasma contact activated with kaolin; format: biochemical, human; settings: for 4 × lag-time (ng/ml) / 4 × lag-time (μM): concentration that prolongs clotting time of kaolin contact activated plasma four times
Method: Thrombin generation was carried out according to WO2003/093831.
Following a double centrifugation at 2500×g for 15 min at room temperature, platelet poor plasma (PPP) was collected from the upper half volume of plasma supernatant, quick frozen and stored at −80° C. The absence of platelet and leucocyte in PPP was checked with an ADVIA 120 counter (Bayer Diagnostics, NY, USA).
Recombinant human tissue factor Innovin® was obtained from Dade Behring (Marburg, Germany) and used at a final concentration of 0.5 pM in PRP and 1 or 5 pM in PPP samples. The phospholipid vesicles used at a final concentration of […] were obtained from Avanti Polar Lipids (Alabaster, Ala., USA) and consisted of 20 mol % phosphatidylserine (PS), 20 mol % phosphatidylethanolamine (PE) and 60 mol % phosphatidylcholine (PC) and were prepared by extrusion method (9,10). Kaolin light (hydrated aluminium silicate) was obtained from Baker Harrison ltd, (Ilford, UK).
Hepes-buffered saline contained 20 mM Hepes (Sigma Aldrich, l'Ile d'Abeau Chesnes, France), 140 mM NaCl and 5 mg/mL bovine serum albumin (BSA) (Euromedex, Souffelweyersheim, France), pH 7.35. This buffer was stored at −20° C. until use. A fresh mixture of fluorogenic substrate and CaCl2 was prepared before each experiment. Fluorogenic substrate, Z-Gly-Gly-Arg-AMC, was obtained from Bachem (Bubendorf, Switzerland). The mixture of fluorogenic substrate 2.5 mM and CaCl2 0.1 M was prepared using buffer containing Hepes 20 mM and 60 mg/mL BSA, pH 7.35. The Calibrator with the activity of 600 nM human thrombin was obtained from Thrombinoscope BV (Maastricht, The Netherlands). Transparent, round bottom Greiner microtiter plates (Greiner ref 65204, Poitiers, France) were used.
Thrombin generation was measured using Calibrated Automated Thrombography (CAT) according to the methodology of WO2003/093831 and a 96-well plate fluorometer (Fluoroscan Ascent Reader, Thermolab systems OY, Helsinki, Finland) equipped with a 390/460 nm filter set. Briefly, 80 μL of plasma is dispensed into the wells of round-bottom 96 well-microtiter plates. 20 μL of a mixture containing tissue factor and phospholipids is added to the PPP sample; alternatively, in order to obtain contact activation, the citrated plasma is preincubated for at least 10 min with 1 mg/ml of Kaolin light. The starting reagent (20 μL per well) contains fluorogenic substrate and CaCl2. […] The most important parameters that can be derived from CAT are lag time, endogenous thrombin potential corresponding to the area under the CAT curve, peak height of thrombin and time to peak.

h-FXIIa = molecular target: T1, h-FXIIa (Homo sapiens, UniProt P00748); assay: Stability of CTI, PTI and TICA at RT and at 95° C., read as inhibition of h-FXIIa; format: physicochemical; settings: for Residual activity / Calculated total I / Activity of FXIIa / Free FXIIa: inhibitor exposed 60 minutes to 95° C.; for Calculated total I / Activity of FXIIa / Free FXIIa: added CTI 8.1 nM, TICA1 306 nM; for Activity of FXIIa / Free FXIIa: total FXIIa 9.33 nM
T1 construct: purchased Enzyme Research Laboratories FXIIa 1212A
T1 sequence (P00748 373-615 limits assumed): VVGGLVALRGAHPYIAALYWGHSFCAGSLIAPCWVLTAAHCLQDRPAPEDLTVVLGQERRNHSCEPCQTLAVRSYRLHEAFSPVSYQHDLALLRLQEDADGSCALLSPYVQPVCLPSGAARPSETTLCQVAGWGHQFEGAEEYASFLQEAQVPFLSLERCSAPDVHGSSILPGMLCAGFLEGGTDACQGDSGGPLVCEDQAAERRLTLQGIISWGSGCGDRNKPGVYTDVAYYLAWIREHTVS
T1 sequence (P00748 20-372 partner limits assumed): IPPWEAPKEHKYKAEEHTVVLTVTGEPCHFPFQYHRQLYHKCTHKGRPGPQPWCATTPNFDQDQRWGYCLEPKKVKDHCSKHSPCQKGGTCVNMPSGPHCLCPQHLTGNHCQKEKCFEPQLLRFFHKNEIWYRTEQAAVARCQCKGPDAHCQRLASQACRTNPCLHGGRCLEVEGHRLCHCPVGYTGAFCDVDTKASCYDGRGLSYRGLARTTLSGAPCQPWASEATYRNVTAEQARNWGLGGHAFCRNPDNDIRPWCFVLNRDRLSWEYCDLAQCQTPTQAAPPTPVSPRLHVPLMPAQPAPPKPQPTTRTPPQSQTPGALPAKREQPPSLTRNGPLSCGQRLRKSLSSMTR
Method: Materials • S2302 From Chromogenic, lot # N0398718 SEQ0860, exp. date 2012-07. Water added on 7 Oct. […] On 3 Aug. […] Product code FXIIa 1212A, lot #FXIIa 2520PL. Bottle with 0.5 mg was reconstituted with 370 μl pure water. […] Buffer 4 mM NaAc, 150 mM NaCl (pH 5.3). Preparation was divided into 20 μl amounts and frozen at −80° C. • Hepes735 140 mM NaCl, 20 mM Hepes, 0.02% NaN3 (pH 7.35). • BSA5 Hepes735+5 mg/ml BSA. • CTI Prepared on 17 Dec. 2004, 0.141 mg/ml, i.e. 0.141/12028=11.7*10^−6 M (11.7 μM). One portion was thawed and divided into 3 parts. […]
Stock FXIIa was diluted 700× in BSA5. The inhibitor was diluted in BSA5 as indicated. Wells contained 70 μl diluted FXIIa (5 nM final), 70 μl inhibitor and 20 μl S2302 (475 or 462.5 μM final). The reaction was started after 5 min heating on the heating plate with S2302. Filters 405 nm and 490 nm reference. Found ΔmA/min was multiplied by 2.14 to get the figure for a 1 cm path.
The residual activity (V) was fitted against the inhibitor concentration with equation:
V=(E+(sqrt(Ê2+2*E*(Ki−I)+Î2+2*I*Ki+Kî2)−E−I−Ki)/2)*kcat*S/(Km+S)
in which E=[FXIIa], Ki is the dissociation constant, I=[Inhibitor], kcat and Km are Michaelis constants and S=[S2302].
To calculate the concentration of I the equation I=x·(x−E−Ki)/(x−E) was used. In this equation is I the calculated inhibitor concentration, x=the residual activity of FXIIa (free FXIIa), E the total FXIIa concentration (=9.33 nM), and Ki the dissociation or inhibitor constant.

[1] = Retention of biological activity at room temperature and in boiling water; format: physicochemical; settings: for biological activity after heating: 0.1 mM solution in closed ampoule in boiling water for 60 min
Method: (Example 7) This means that, unlike CTI, it can be added to citrate tubes that can be sterilized and used under clinical conditions. About 0.10 mg of TICA1 would be required per vacuum tube meant to take 10 ml of blood.

[2] = contact activation of PPP by kaolin
[3] = Kaolin, CTI 0.72 μM (8.64 μg/ml)

CC[C@H](C)[C@@H]1NC(=O)[C@H](CCCNC(=N)N)NC(=O)[C@@H]2CCCN2C(=O)[C@@H](NC(=O)[C@@H](NC(=O)[C@@H](N)CCCNC(=N)N)C(C)C)CSSC[C@@H]2NC(=O)[C@H](CCC(=O)O)NC(=O)[C@H](C)NC(=O)[C@H](CC(C)C)NC(=O)[C@@H]3CSSC[C@@H](C(=O)NCC(=O)O)NC(=O)[C@H](Cc4ccc(O)cc4)NC(=O)CNC(=O)[C@H](Cc4c[nH]cn4)NC(=O)[C@H](CCC(=O)O)NC(=O)[C@H](CC(C)C)NC(=O)[C@H](CSSC[C@H](NC(=O)[C@H](CCCCN)NC(=O)[C@H](CCSC)NC(=O)[C@H](CC(C)C)NC1=O)C(=O)N[C@@H](CCCCN)C(=O)N[C@@H](CCCCN)C(=O)N[C@@H](CC(=O)O)C(=O)N[C@@H](CO)C(=O)N[C@@H](CC(=O)O)C(=O)N3)NC(=O)[C@H](C(C)C)NC2=O [TICA1]
effect on lag time of thrombin generation triggered by contact activation (contact activation; FIG. 1): prolong the lag time | inhibition of contact activation of PPP (contact activation; PPP incubated with kaolin, 0.94 to 4.6 μM): dose-dependent inhibition | 4 × lag-time (ng/ml) (contact activation; After heating): 7.5 ng/mL | 4 × lag-time (μM) (contact activation; After heating): 2.3 µM | 4 × lag-time (ng/ml) (contact activation; Before heating): 7.8 ng/mL | 4 × lag-time (μM) (contact activation; Before heating): 2.4 µM | potency compared with CTI on a molar basis (contact activation; [2]): ~2.5 times less potent | potency compared with CTI on a weight basis (contact activation; [2]): equipotent | Ki (h-FXIIa; (Ki) (nM), inhibitor 30 min 95° C., h-FXIIa 5.01 nM): 24 nM | Res. Act. (%) (h-FXIIa; inhibitor 30 min 95° C.): 94% | Res. Act. (%) (h-FXIIa; inhibitor at RT during 72 hrs): 102% | Residual activity (h-FXIIa): 81.7% | Calculated total I (h-FXIIa): 250 nM | Activity of FXIIa (h-FXIIa): 33.5 ± 1.78 mA/min | Free FXIIa (h-FXIIa): 3.93 nM | Res. Act. (%) (h-FXIIa; inhibitor kept at −80° C.): 100% | biological activity after heating [1]: does not affect its biological activity | stability at room temperature ([1]; left for weeks at room temperature): without loosing activity

B1: Corn trypsin inhibitor (other, UniProt P01088 29-138, looked up)
chain: SAGTSCVPGWAIPHNPLPSCRWYVTSRTCGIGPRLPWPELKRRCCRELADIPAYCRCTALSILMDGAIPPGPDAQLEGRLEDLPGCPREVQRGFAATLVTEAECNLATIS
notes: also called CTI
ETP (contact activation; [3]): 1116 | Lag-time (contact activation; [3]): 18.62 | Peak (contact activation; [3]): 385 | ttPeak (contact activation; [3]): 20.06 | Residual activity (h-FXIIa): 29.3% | Calculated total I (h-FXIIa): 2.37 nM | Activity of FXIIa (h-FXIIa): 66.3 ± 1.32 mA/min | Free FXIIa (h-FXIIa): 7.77 nM | biological activity after heating [1]: significantly inactivated
